Experimental data as given in ChEMBL document CHEMBL4627358, “A hypoxia-activated antibacterial prodrug” (Bioorg Med Chem Lett, 2020).
In brackets after ≈: the same amount, converted by molar mass.

Experiments:
[1] = tested on: Staphylococcus aureus; assay: Antibacterial activity against Staphylococcus aureus ATCC 49775 assessed as bacterial growth inhibition measured after 16 to 20 hrs by CLSI protocol based broth microdilution method; assay type: functional
[2] = tested on: Escherichia coli; assay: Antibacterial activity against Escherichia coli K-12 assessed as bacterial growth inhibition measured after 16 to 20 hrs by CLSI protocol based broth microdilution method; assay type: functional

CCCCCCCCN(Cc1c2ccccc2c(Cl)c2ccccc12)C(=O)C(CCCCNC(=O)OCc1ccc([N+](=O)[O-])cc1)NC(=O)OCc1ccc([N+](=O)[O-])cc1 (centres undefined)
MIC [1]: > 256 µg/mL | MIC [2]: > 256 µg/mL

CCCCCCCCN(Cc1c2ccccc2c(Cl)c2ccccc12)C(=O)C(N)CCCCN (centres undefined)
MIC [1]: 2 µg/mL (≈ 4.15 µM) | MIC [2]: 4 µg/mL (≈ 8.3 µM)
